Among the data in patent US11952365B2, “Anti-viral compounds” (Aligos Therapeutics, Inc., priority 2020, dated 2024) are IC50, EC50 and CC50 values, retold here.

One series deals with HRV3C (Human rhinovirus 14, UniProt P03303). Nature of the series: HRV3C protease assay (duplex, SAMDI-MS). The format is biochemical, HRV. To be noted: HRV3C, 30 mins preincubation, read-out: HRV IC50. Here is the method: Protease assays were performed in 384-well low volume polypropylene microtiter plates at ambient temperature. For the duplex assay, 3CLpro and HRV3C was added using a Multidrop Combi (Thermo Scientific; Waltham, MA) and preincubated for 30 mins with small molecules. The reactions were initiated by the addition of the two peptide substrates. The reactions were incubated for 30 mins and quenched by the addition of 0.5% formic acid (final) with subsequent neutralization using 1% sodium bicarbonate (final). Internal standard peptides were added in 20 mM Hepes pH 8.0 for quantitation of the protease products. For SAMDI-MS analysis, 2 μL of each reaction mixture was transferred using a 384-channel automated liquid handler to SAMDI biochip arrays functionalized with a neutravidin-presenting self-assembled monolayer. The SAMDI arrays were incubated for 1 h in a humidified chamber to allow the specific immobilization of the biotinylated peptide substrates, cleaved products and internal standards. The samples were purified by washing the SAMDI arrays with deionized ultrafiltered water and dried with compressed air. A matrix comprising alpha-cyano cinnamic acid in 80% acetonitrile:20% aqueous ammonium citrate was applied in an automated format by dispensing 50 nL to each spot in the array. SAMDI-MS was performed using reflector-positive mode on an AB Sciex TOF-TOF 5800 System (AB Sciex, Framingham, MA) with 400 shots/spot analyzed in a random raster sampling. For data analysis, area under the curves (peaks) (AUCs) for the product and internal standard were calculated using the TOF/TOF Series Explorer (AB Sciex), and the amount of product formed was calculated using the equation (AUC product/AUC internal standard). The amount of product generated was calculated using the ratio of product area under the curve (AUC) divided by the AUC of the internal standard. Negative controls were pre-quenched with 0.5% formic acid final. Assay robustness was determined by Z-Factor. The IC50s were determined by fitting the curves using a four-parameter equation in Graphpad Prism 8.

Another series concerns the target T1, human cathepsin L (Homo sapiens, UniProt P07711).
T1 construct: purchased R&D Systems
Put plainly: cathepsin L assay. The class given is biochemical. To be noted: 10 pM human cathepsin L, Z-FR-AMC 2 μM, class symbols. How it is done:
For the cathepsin L assay, 10 pM of human cathepsin L (R&D Systems; Minneapolis, MN) was preincubated for 30 mins with test compounds. Reactions were initiated by the addition of a peptide substrate Z-FR-AMC (final concentration 2 μM, Anaspec; Fremont, CA). Fluorescence was measured at 2-minute intervals for 30 mins using a 355/460 excitation/emission filter module on an Envision plate reader (Perkin Elmer; Waltham, MA). The IC50 values were calculated for each assay by fitting the curves using a four-parameter equation in GraphPad Prism.

Another series concerns the target 3CLpro (Severe acute respiratory syndrome coronavirus 2, UniProt P0DTD1). Nature of the series: SARS-CoV-2 3CLpro protease assay (duplex, SAMDI-MS). The class given is biochemical. On the set-up: For the duplex assay, 3CLpro and HRV3C was added. To be noted: 3CLpro, 30 mins preincubation, class symbols; read-out: SARS-Cov-2 IC50.
The subject of series [1] is human beta-coronavirus OC43. Put plainly: microbe, parasite or virus in culture. The format is cell-based. To be noted: Betacoronavirus 1, OC43, HeLa, 144 h, OC43 in HeLa cells, 6 days at 33° C., read-out: EC50.
Series [2] is described as follows: Cytotoxicity plates without OC43 virus (cell-titer-glo). To be noted: human; HeLa cells without OC43 virus, class symbols. The class given is cell-based, human. Here is the method:
The human beta-coronavirus OC43 was purchased from ATCC (Manassas, VA) and propagated using HCT-8 human colorectal epithelial cells (ATCC). HeLa human cervical epithelial cells (ATCC) were used as susceptible host cell lines and were cultured using EMEM media, supplemented with 10% fetal bovine serum (FBS), 1% (v/v) penicillin/streptomycin (P/S), 1% (v/v) HEPES and 1% (v/v) Cellgro Glutagro™ supplement (all Corning, Manassas, VA) at 37° C. For the OC43 antiviral assay, 1.5×10^4 HeLa cells per well were plated in 100 μL complete media in white 96-well plates with clear bottoms at 37° C. for up to 24 h to facilitate attachment and allow cells to recover from seeding stresses. Next day, the cell culture medium was removed. Serially diluted compounds in 100 μL assay media (EMEM, 2% FBS, 1% P/S, 1% Cellgro Glutagro™ supplement, 1% HEPES) were added to the cells and incubated for 4H at 37° C. in a humidified 5% CO2 incubator. 100 μL of OC43 virus stock was diluted to a concentration known to produce optimal cytopathic effect, inducing 80-90% reduction in cell viability. 96-well plates were incubated for 6 (HeLa) days at 33° C.; each plate contains uninfected control wells as well as virus-infected wells that were not treated with compound. Cytotoxicity plates without the addition of OC43 virus were carried out in parallel. At the end of the incubation period, 100 μL cell culture supernatant was replaced with 100 μL cell-titer-glo reagent (Promega, Madison, WI) and incubated for at least 10 min at rt prior to measuring luminescence. Luminescence was measured on a Perkin Elmer (Waltham, MA) Envision plate reader. Antiviral % inhibition was calculated as follows: [(Compound treated cells infected sample)−(no compound infected control)]/[(Uninfected control)−(no compound infected control)]*100; Using GraphPad (San Diego, CA) prism software version 8.3.1, the antiviral dose-response plot was generated as a sigmoidal fit, log(inhibitor) vs response-variable slope (four parameters) model and the EC50 was calculated which is the predicted compound concentration corresponding to a 50% inhibition of the viral cytopathic effect.

Read-outs that look alike come from different tables or passages of the source.

On to `N#C[C@H](C[C@@H]1CCNC1=O)NC(=O)[C@@H]1[C@H]2CCC[C@H]2CN1C(=O)c1cc2c(OC3CC3)cc(Cl)cc2[nH]1` [Compound 185, (1S,3aR,6aS)-2-(6-chloro-4-cyclopropoxy-1H-indole-2-carbonyl)-N-[(1S)-1-cyano-2-[(3S)-2-oxopyrrolidin-3-yl]ethyl]-hexahydro-1H-cyclopenta[c]pyrrole-1-carboxamide], for which the IC50 is over 10 µM on HRV3C (bound), at least 10 µM at human cathepsin L and 0.2 to 2 µM on 3CLpro.
For the compound `COc1cccc2[nH]c(C(=O)N3CC4(C5CC5)CC3(C(=O)N[C@@H](C[C@@H]3CCNC3=O)C(=O)C(=O)NC3CC3)C4)cc12` [Compound 131], the IC50 was 0.02 to 0.2 µM on HRV3C (class symbols), at least 10 µM against human cathepsin L and 0.02 to 0.2 µM at 3CLpro. The EC50 in series [1] (bound) was over 10 µM. Also, the CC50 at 6 days in series [2] is over 10 µM.
For the compound `N#C[C@H](C[C@@H]1CCNC1=O)NC(=O)[C@@H]1[C@H]2CCC[C@H]2CN1C(=O)c1cc2c(OC(F)F)cccc2[nH]1` [Compound 190], the IC50 is over 10 µM on HRV3C (bound), at least 10 µM on human cathepsin L and 0.2 to 2 µM on 3CLpro.
For the compound `N#C[C@H](C[C@@H]1CCNC1=O)NC(=O)[C@@H]1[C@H]2CCC[C@H]2CN1C(=O)c1nc2c(Cl)ccc(Cl)c2[nH]1` [Compound 186], the IC50 at HRV3C (bound) is over 10 µM; against human cathepsin L, at least 10 µM; on 3CLpro it was 0.2 to 2 µM.
For `N#C[C@H](C[C@@H]1CCNC1=O)NC(=O)[C@@H]1[C@H]2CCC[C@H]2CN1C(=O)c1cc2c(Cl)ccc(C(F)(F)F)c2[nH]1` [Compound 175], the IC50 at HRV3C (bound) is over 10 µM; against human cathepsin L, at least 10 µM; on 3CLpro, 0.2 to 2 µM. In addition, the EC50 in series [1] (class symbols) lay within 1 to 10 µM. In addition, in series [2], the CC50 at 6 days is over 10 µM.
Take `C#C[C@H](C[C@@H]1CCNC1=O)NC(=O)[C@@H]1[C@H]2CCC[C@H]2CN1C(=O)c1cc2c(Cl)ccc(Cl)c2[nH]1` [Compound 177, (1S,3aR,6aS)-2-(4,7-dichloro-1H-indole-2-carbonyl)-N-[(2S)-1-[(3S)-2-oxopyrrolidin-3-yl]but-3-yn-2-yl]-hexahydro-1H-cyclopenta[c]pyrrole-1-carboxamide]: the IC50 at HRV3C (bound) is over 10 µM; against human cathepsin L, at least 10 µM; at 3CLpro it was 2 to 20 µM. Also, the EC50 in series [1] (bound) is over 10 µM. In addition, the CC50 at 6 days in series [2] is over 10 µM.
On to `COc1nccc2[nH]c(C(=O)N3C[C@@H]4CCC[C@@H]4[C@H]3C(=O)N[C@H](C#N)C[C@@H]3CCNC3=O)cc12` [Compound 191], for which the IC50 on HRV3C (bound) is over 10 µM; against human cathepsin L, at least 10 µM; at 3CLpro, 0.2 to 2 µM.
`COc1cc(F)c(F)c2[nH]c(C(=O)N3C[C@@H]4CCC[C@@H]4[C@H]3C(=O)N[C@@H](C[C@@H]3CCNC3=O)C(=O)CO)cc12` [Compound 184, (1S,3aR,6aS)-2-(6,7-difluoro-4-methoxy-1H-indole-2-carbonyl)-N-[(2S)-4-hydroxy-3-oxo-1-[(3S)-2-oxopyrrolidin-3-yl]butan-2-yl]-hexahydro-1H-cyclopenta[c]pyrrole-1-carboxamide]: the IC50 at HRV3C (class symbols) was 2 to 20 µM; against human cathepsin L it was at least 10 µM; on 3CLpro, under 0.02 µM.
Consider `COc1ccc(Cl)c2cc(C(=O)N3C[C@@H]4CCC[C@@H]4[C@H]3C(=O)N[C@@H](C[C@@H]3CCNC3=O)C(=O)CO)[nH]c12` [Compound 176], for which the IC50 at HRV3C (bound) is over 10 µM; at human cathepsin L, at least 10 µM; at 3CLpro it was 0.02 to 0.2 µM. The EC50 in series [1] (class symbols) lay within 0.1 to 1 µM. Besides, the CC50 at 6 days in series [2] was over 10 µM.
With `COc1cc(Cl)cc2[nH]c(C(=O)N3C[C@@H]4CCC[C@@H]4[C@H]3C(=O)N[C@H](C#N)C[C@@H]3CCNC3=O)cc12` [Compound 192], the IC50 is over 10 µM on HRV3C (bound), at least 10 µM against human cathepsin L and 0.2 to 2 µM at 3CLpro.
As to `COc1cccc2[nH]c(C(=O)N3C[C@H]4CCCC[C@H]4[C@@H]3C(=O)N[C@@H](C[C@@H]3CCCNC3=O)C(=O)COCc3ccccc3)cc12` (single isomer, unassigned) [Compound 59A_2], the IC50 on HRV3C (bound) is over 10 µM; at human cathepsin L it was at least 10 µM; on 3CLpro, 0.2 to 2 µM. Further, the EC50 in series [1] (class symbols) was 1 to 10 µM. The compound further came in with a CC50 at 6 days in series [2] of over 10 µM.
Consider `N#C[C@H](C[C@@H]1CCNC1=O)NC(=O)[C@@H]1[C@H]2CCC[C@H]2CN1C(=O)c1cc2c(Cl)cc(F)cc2[nH]1` [Compound 187], for which the IC50 on HRV3C (bound) is over 10 µM; on human cathepsin L, at least 10 µM; at 3CLpro it was 0.2 to 2 µM.
Regarding `N#C[C@H](C[C@@H]1CCNC1=O)NC(=O)[C@@H]1[C@H]2CCC[C@H]2CN1C(=O)c1cc2c(Cl)cc(Cl)cc2[nH]1` [Compound 188], the IC50 is over 10 µM on HRV3C (bound), at least 10 µM at human cathepsin L and 0.2 to 2 µM on 3CLpro.
For `COc1cccc2[nH]c(C(=O)N3C[C@H]4CCCC[C@H]4[C@@H]3C(=O)N[C@@H](C[C@@H]3CCCNC3=O)C(=O)CO)cc12` [Compound 59_2, (1R,3aS,7aR)—N—((S)-4-hydroxy-3-oxo-1-((S)-2-oxopiperidin-3-yl)butan-2-yl)-2-(4-methoxy-1H-indole-2-carbonyl)octahydro-1H-isoindole-1-carboxamide], the IC50 on HRV3C (bound) was over 10 µM; against human cathepsin L, at least 10 µM; at 3CLpro it was 0.2 to 2 µM. In addition, in series [1] (class symbols), the EC50 fell in the range of 1 to 10 µM. Moreover, the CC50 at 6 days in series [2] was over 10 µM.
With `CCOC(=O)c1cc(C(=O)N2C[C@@H]3CCC[C@@H]3[C@H]2C(=O)N[C@H](C#N)C[C@@H]2CCNC2=O)[nH]c1C` [Compound 193], the IC50 on HRV3C (bound) was over 10 µM; against human cathepsin L, at least 10 µM; on 3CLpro, 0.2 to 2 µM.
For `COc1cccc2[nH]c(C(=O)N3C[C@@H]4CCCC[C@@H]4[C@H]3C(=O)N[C@@H](C[C@@H]3CCCNC3=O)C(=O)CO)cc12` [Compound 59_1, (1S,3aR,7aS)—N—((S)-4-hydroxy-3-oxo-1-((S)-2-oxopiperidin-3-yl)butan-2-yl)-2-(4-methoxy-1H-indole-2-carbonyl)octahydro-1H-isoindole-1-carboxamide], the half-inhibitory concentration (IC50) on HRV3C (class symbols) was 2 to 20 µM; against human cathepsin L it was at least 10 µM; on 3CLpro it was under 0.02 µM. Also, the EC50 in series [1] (class symbols) lay within 0.1 to 1 µM. Also, the CC50 at 6 days in series [2] is over 10 µM.
Turning to `COc1ccc(F)c2[nH]c(C(=O)N3C[C@@H]4CCC[C@@H]4[C@H]3C(=O)N[C@H](C#N)C[C@@H]3CCNC3=O)cc12` [Compound 189], the results for the IC50 on HRV3C (bound), on human cathepsin L and on 3CLpro were over 10 µM, at least 10 µM and 0.2 to 2 µM, respectively.

The IC50 is the midpoint of a concentration-inhibition curve. One may read the EC50 as the concentration at which the effect is half-maximal. In general, CC50 refers to the concentration that lowers cell viability or growth by half. A higher CC50 goes with lower toxicity to the cells.
